Data reported in PubChem BioAssay AID1963833 (Molecular Pharmacology Branch, DTP, NCI, 2024).
pIC50: −log10 of the molar value.

Tested on: 883617-216-R-J1-PDC complex spheroid viability
Assay: Anticancer human tumor 883617-216-R-J1-PDC patient-derived bladder carcinoma cell line growth inhibition [POLQ]
Conditions: for pIC50: curve of first compound; for viability, T/C: stronger effect = lower value
In short: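 Growth inhibition in 3D: complex spheroids (tumor PDC, HUVEC, MSC) treated with POLQ inhibitor combinations; where Cmax unknown, highest tested concentration 10 microM, except SN-38 at 1 microM.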

[1] = second compound 0.0316 µM, first compound 0.000316 µM
[2] = second compound 0.0316 µM, first compound 0.001 µM
[3] = second compound 0.0316 µM, first compound 0.00316 µM
[4] = second compound 0.0316 µM, first compound 0.01 µM
[5] = second compound 0.0316 µM, first compound 0.0316 µM
[6] = second compound 0.0316 µM, first compound 0.1 µM
[7] = second compound 0.1 µM, first compound 0.000316 µM
[8] = second compound 0.1 µM, first compound 0.001 µM
[9] = second compound 0.1 µM, first compound 0.00316 µM
[10] = second compound 0.1 µM, first compound 0.01 µM
[11] = second compound 0.1 µM, first compound 0.0316 µM
[12] = second compound 0.1 µM, first compound 0.1 µM
[13] = second compound 0.316 µM, first compound 0.000316 µM
[14] = second compound 0.316 µM, first compound 0.001 µM
[15] = second compound 0.316 µM, first compound 0.00316 µM
[16] = second compound 0.316 µM, first compound 0.01 µM
[17] = second compound 0.316 µM, first compound 0.0316 µM
[18] = second compound 0.316 µM, first compound 0.1 µM
[19] = second compound 1 µM, first compound 0.000316 µM
[20] = second compound 1 µM, first compound 0.001 µM
[21] = second compound 1 µM, first compound 0.00316 µM
[22] = second compound 1 µM, first compound 0.01 µM
[23] = second compound 1 µM, first compound 0.0316 µM
[24] = second compound 1 µM, first compound 0.1 µM
[25] = second compound 3.16 µM, first compound 0.000316 µM
[26] = second compound 3.16 µM, first compound 0.001 µM
[27] = second compound 3.16 µM, first compound 0.00316 µM
[28] = second compound 3.16 µM, first compound 0.01 µM
[29] = second compound 3.16 µM, first compound 0.0316 µM
[30] = second compound 3.16 µM, first compound 0.1 µM
[31] = second compound 10 µM, first compound 0.000316 µM
[32] = second compound 10 µM, first compound 0.001 µM
[33] = second compound 10 µM, first compound 0.00316 µM
[34] = second compound 10 µM, first compound 0.01 µM
[35] = second compound 10 µM, first compound 0.0316 µM
[36] = second compound 10 µM, first compound 0.1 µM
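Further: spheroids exposed to compounds for seven days before readout.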
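Wherever viability, T/C is given: 100% = DMSO vehicle control viability.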

`CC[C@@]1(O)C(=O)OCc2c1cc1n(c2=O)Cc2cc3c(CN(C)C)c(O)ccc3nc2-1` + Cc1cccc(N(C)C(=O)C2C(O)CCN2c2nc(C)cc(C(F)(F)F)c2C#N)c1 was tested, and the pIC50 (second compound 0.0316 µM) was under 7.00, the pIC50 (second compound 0.1 µM) was under 7.00 and the pIC50 (second compound 0.316 µM) was under 7.00. The pIC50 (second compound 1 µM) was under 7.00, the pIC50 (second compound 3.16 µM) was under 7.00 and the pIC50 (second compound 10 µM) was under 7.00. It also gave a viability, T/C [1] of 96.3%, a viability, T/C [2] of 85.8% and a viability, T/C [3] of 96.1%. It also gave a viability, T/C [4] of 79.3%, a viability, T/C [5] of 57.5% and a viability, T/C [6] of 54.1%. The viability, T/C [7] was 101%, the viability, T/C [8] was 93.3% and the viability, T/C [9] was 83.7%. For the same molecule, the viability, T/C [10] was 81.5%, the viability, T/C [11] was 58% and the viability, T/C [12] was 61.4%. It also gave a viability, T/C [13] of 102%, a viability, T/C [14] of 106% and a viability, T/C [15] of 87.6%. It also gave a viability, T/C [16] of 68.7%, a viability, T/C [17] of 64.6% and a viability, T/C [18] of 64.4%. The viability, T/C [19] was 99.5%, the viability, T/C [20] was 113% and the viability, T/C [21] was 97.1%. It also gave a viability, T/C [22] of 83.1%, a viability, T/C [23] of 63.8% and a viability, T/C [24] of 62.8%. For the same molecule, the viability, T/C [25] was 100%, the viability, T/C [26] was 103% and the viability, T/C [27] was 98%. It also gave a viability, T/C [28] of 88.4%, a viability, T/C [29] of 66.9% and a viability, T/C [30] of 61.8%. The viability, T/C [31] was 112%, the viability, T/C [32] was 94.6% and the viability, T/C [33] was 105%. For the same molecule, the viability, T/C [34] was 79.5%, the viability, T/C [35] was 67.7% and the viability, T/C [36] was 71%.

With `Cn1ncnc1[C@H]1c2n[nH]c(=O)c3cc(F)cc(c23)N[C@@H]1c1ccc(F)cc1` + Nc1ccc(C#CCN(C(=O)Cc2ncc(C(F)(F)F)cc2C(F)(F)F)c2ccc(F)cc2)nn1 the pIC50 (second compound 0.0316 µM) was under 7.00, the pIC50 (second compound 0.1 µM) was under 7.00 and the pIC50 (second compound 0.316 µM) was under 7.00. It also gave a pIC50 (second compound 1 µM) of under 7.00, a pIC50 (second compound 3.16 µM) of under 7.00 and a pIC50 (second compound 10 µM) of under 7.00. For the same molecule, the viability, T/C [1] was 87.9%, the viability, T/C [2] was 94.4% and the viability, T/C [3] was 99.1%. For the same molecule, the viability, T/C [4] was 82.4%, the viability, T/C [5] was 72% and the viability, T/C [6] was 78.9%. The viability, T/C [7] was 93.8%, the viability, T/C [8] was 97.5% and the viability, T/C [9] was 97.7%. The viability, T/C [10] was 79.7%, the viability, T/C [11] was 85.4% and the viability, T/C [12] was 80.7%. It also gave a viability, T/C [13] of 82.9%, a viability, T/C [14] of 111% and a viability, T/C [15] of 91.9%. The viability, T/C [16] was 87.9%, the viability, T/C [17] was 83% and the viability, T/C [18] was 77.5%. It also gave a viability, T/C [19] of 91.9%, a viability, T/C [20] of 94.4% and a viability, T/C [21] of 104%. For the same molecule, the viability, T/C [22] was 93.1%, the viability, T/C [23] was 84.5% and the viability, T/C [24] was 81.8%. The viability, T/C [25] was 101%, the viability, T/C [26] was 112% and the viability, T/C [27] was 90.2%. For the same molecule, the viability, T/C [28] was 109%, the viability, T/C [29] was 86% and the viability, T/C [30] was 67.8%. It also gave a viability, T/C [31] of 100%, a viability, T/C [32] of 102% and a viability, T/C [33] of 102%. It also gave a viability, T/C [34] of 95.8%, a viability, T/C [35] of 118% and a viability, T/C [36] of 92.2%.
